According to US10941121B2 (AZIENDA OSPEDALIERA UNIVERSITARIA SENESE, priority 2015, dated 2021):
Where two headings read alike, the source gives them in different places.

Key:
Lunet/HuH7 cells = assay: Cytotoxicity, MTT method in LUNET cells; assay type: cell-based; conditions: MMT method in LUNET cells; read-out: CC50 (μM) non-infected cells
Procedure: (§1) Toxicity (CC50) was analysed in the Lunet/HuH7 cells by the addition of 10 μL of MTT (3-(4,5-dimethylthiazol-2-yl)-2,5-diphenyltetrazolium bromide) per well. After 4 h of incubation at 37° C. in a humidified atmosphere with 5% CO2, the amount of formazan produced was quantified spectrophotometrically at 550/620 nm (C. Pannecouque et al, Nature protocol 2008; 3 (3): 427-434). […] These assays were done in duplicate.

[1] = tested on: Hepatitis C Virus (HCV) replicon system; assay: HCV replicon system, luciferase method in LucUbiNeo-ET cells; conditions: for EC50: read-out: EC50 (μM) HCV replicon system
[2] = Cytotoxicity, MTT method in LUNET cells; assay type: cell-based; conditions: human; MMT method in LUNET cells; read-out: CC50 (μM) non-infected cells
Procedure: as §1

[3] = Cytotoxicity, MTT method in HuH7.5 cells; assay type: cell-based; conditions: human, non-infected, read-out: HCV CC50
Procedure: After 4 h of incubation at 37° C. in a humidified atmosphere with 5% CO2, the amount of formazan produced was quantified spectrophotometrically at 550/620 nm (C. Pannecouque et al, Nature protocol 2008; 3 (3): 427-434). […] These assays were done in duplicate.

[4] = Parallel Artificial Membrane Permeability Assay (PAMPA); assay type: in vitro ADME; conditions: for PAMPA membrane retention (RM %): value in brackets in the PAMPA cell
Procedure: Parallel Artificial Membrane Permeability Assay (PAMPA). Donor solution (0.5 mM) was prepared by diluting 1 mM dimethylsulfoxide (DMSO) compound stock solution using phosphate buffer (pH 7.4, 0.025 M). Filters were coated with 5 μL of a 1% (w/v) dodecane solution of phosphatidylcholine prepared from CHCl3 solution 10% w/v, for intestinal permeability. Donor solution (150 μL) was added to each well of the filter plate. To each well of the acceptor plate were added […] (50% DMSO in phosphate buffer). All compounds were tested in three different plates on different days. The sandwich was incubated for 5 h at room temperature under gentle shaking. After the incubation time, the plates were separated, and samples were taken from both receiver and donor sides and analyzed using LC with UV detection at 280 nm.
LC analysis were performed with a Varian Prostar HPLC system (Varian Analytical Instruments, USA) equipped with a binary pump with a manual injection valve and model Prostar 325 UV-VIS Detector.
Permeability (Papp) for PAMPA was calculated according to the following equation, obtained from Wohnsland and Faller and Sugano et al. equation with some modification in order to obtain permeability values in cm s^−1,
where VA is the volume in the acceptor well, VD is the volume in the donor well (cm^3), A is the “effective area” of the membrane (cm^2), t is the incubation time (s) and r the ratio between drug concentration in the acceptor and equilibrium concentration of the drug in the total volume (VD+VA). Drug concentration is estimated by using the peak area integration.
Membrane retentions (%) were calculated according to the following equation: […]
where r is the ratio between drug concentration in the acceptor and equilibrium concentration, D, A, and Eq represented drug concentration in the donor, acceptor and equilibrium solution, respectively.

Water Solubility Assay = assay type: physicochemical; conditions: thermodynamic from solid
Procedure: Water Solubility Assay. Each solid compound (1 mg) was added to 1 mL of water. The samples were shaked in a shaker bath at room temperature for 24-36 h. The suspensions were filtered through a 0.45 μm nylon filter (Acrodisc), and the solubilized compound determined by LC-MS-MS assay. For each compound the determination was performed in triplicate.
For the quantification was used an LC-MS system consisted of a Varian apparatus (Varian Inc) including a vacuum solvent degassing unit, two pumps (212-LC), a Triple Quadrupole MSD (Mod. 320-LC) mass spectrometer with ES interface and Varian MS Workstation System Control Vers. 6.9 software. […] The flow rate was 0.2 mL min^−1 and injection volume was 5 μL. The instrument operated in positive mode and parameters were: detector 1850 V, drying gas pressure 25.0 psi, desolvation temperature 300.0° C., nebulizing gas 40.0 psi, needle 5000 V and shield 600 V. Nitrogen was used as nebulizer gas and drying gas. Collision induced dissociation was performed using Argon as the collision gas at a pressure of 1.8 mTorr in the collision cell.

DDX3 Helicase [5] = target: T1, DDX3 Helicase (Homo sapiens, UniProt O00571); assay: biochemical
T1 sequence (O00571 whole entry): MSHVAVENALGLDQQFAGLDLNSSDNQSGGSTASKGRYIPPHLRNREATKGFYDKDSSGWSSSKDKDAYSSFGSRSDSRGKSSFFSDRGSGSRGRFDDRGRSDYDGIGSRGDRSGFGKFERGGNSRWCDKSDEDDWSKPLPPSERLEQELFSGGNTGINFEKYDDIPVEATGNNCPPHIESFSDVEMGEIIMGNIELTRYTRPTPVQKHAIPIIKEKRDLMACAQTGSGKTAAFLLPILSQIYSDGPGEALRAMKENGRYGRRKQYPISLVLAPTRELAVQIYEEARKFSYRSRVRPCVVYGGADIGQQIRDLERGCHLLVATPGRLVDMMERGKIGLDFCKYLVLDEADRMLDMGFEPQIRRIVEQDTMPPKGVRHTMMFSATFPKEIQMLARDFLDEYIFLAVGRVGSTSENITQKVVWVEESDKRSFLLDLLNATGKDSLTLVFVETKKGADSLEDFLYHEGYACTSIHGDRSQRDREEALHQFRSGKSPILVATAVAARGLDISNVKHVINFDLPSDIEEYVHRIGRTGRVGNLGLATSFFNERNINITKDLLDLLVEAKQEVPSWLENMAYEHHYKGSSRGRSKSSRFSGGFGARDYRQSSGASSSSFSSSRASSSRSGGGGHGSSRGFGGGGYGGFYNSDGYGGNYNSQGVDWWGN

[6] = Cytotoxicity in Huh7 cells, nuclei counts; conditions: human
[7] = tested on: HCV Jc1 (genotype 2a virus); assay: HCV infectious cell culture system, NS5A immunostaining; conditions: Hepatitis C virus, Huh7.5, read-out: HCV EC50
DDX3 Helicase [8] = target: T1, DDX3 Helicase; conditions: read-out: ID50 (μM) against DDX3 Helicase; n.a. = compound not active
in vitro = conditions: hamster
JEV strain (NJ2008) = assay: JEV infectious cell culture system, plaque formation assay in BHK-21 cells; conditions: Japanese encephalitis virus, BHK-21, read-out: JEV EC50
[9] = Cytotoxicity in PBMC, CellTiter 96 MTS viability assay; assay type: cell-based; conditions: human, human primary PBMCs
PRRSV = PRRSV infectious cell culture system, plaque formation assay in MARC-145 cells; assay type: cell-based; conditions: Porcine reproductive and respiratory syndrome virus, MARC145; viral titre by plaque formation assay in MARC-145 cells
Procedure: According to the requirement of different experiments, MARC-145 cells were either infected with PRRSV at MOIs of 0.1, 1 or 10, or mock infected with phosphate-buffered saline (PBS). After 1 h incubation at 37° C., unbounded viruses were removed by washing thrice with PBS and cultured in DMEM supplemented with 8% FBS at 37° C. for various lengths of time. For the autophagy induction and inhibition experiments, MARC-145 cells were pretreated with varying concentrations of rapamycin or 3-MA for 4 h before viral infection. MARC-145 cells were then infected with PRRSV at MOI of 1. After 1 h incubation at 37° C., unbounded viruses were removed by washing thrice with PBS and cultured in DMEM supplemented with 2% FBS containing varying concentrations of compound, 3-MA or the corresponding amount of dimethyl sulfoxide (DMSO, control) at 37° C. for 24 h.

[10] = tested on: HIV-1 wild-type reference strain NL4-3; assay: HIV-1 phenotypic assay, MT-2 cells then TZM-bl cells, luciferase; assay type: cell-based; conditions: Human immunodeficiency virus 1, NL43; first cycle in MT-2 cells, additional round in TZM-bl cells
[11] = tested on: human liver microsome (HLM); assay: Microsomal Stability Assay; conditions: human liver microsomes, 37 °C, 60 min, compound 50 μM; percentage of not metabolized compound
[12] = Cytotoxicity in the JEV cell culture system; conditions: hamster
HIV (PBMC) = assay: HIV infectious cell culture system in PBMC, HIV-1 RNA in supernatant; conditions: Human immunodeficiency virus 1, PBMC, 72 h, read-out: EC50 HIV (PBMC) 72 h
HIV = conditions: EI01D; read-out: EC50 inhibition of viral load of PBMCs infected with HIV; cited from earlier work
DDX3 = DDX3 (Homo sapiens, UniProt O00571); conditions: literature values; cited from earlier work
Chain of DDX3 (O00571 whole entry): as above

HIV-1 (IIIB) = conditions: read-out: EC50 replication of HIV-1 (IIIB) in MT4-cells; cited from earlier work
MOLT-4 T-lymphocytic = conditions: cited from earlier work
[13] = experimental aqueous solubility, read-out: LogS (converted)
[14] = room temperature, 24-36 h, read-out: Aq. Solub.
[15] = DENV CC50, Huh7 cells, DENV experiment
[16] = WNV CC50, Huh7 cells, WNV experiment

CCCCCCc1cn(-c2ccc(NC(=O)Nc3ccccc3C(F)(F)F)cc2)nn1 [Compound 8d]
CC50 (Lunet/HuH7 cells): 290 µM | EC50 ([1]; luciferase method in LucUbiNeo-ET cells, 2 days): 0.67 µM

Cc1ccccc1NC(=O)Nc1ccc(-n2cc(CCC(C)C)nn2)cc1 [Compound 20b, 1-(4-(4-isopentyl-1H-1,2,3-triazol-1-yl)phenyl)-3-o-tolylurea]
CC50 [2]: 189 µM | CC50 [3]: 209 µM | Papp at 5 h, 0.5 mM ([4]; PAMPA, phosphatidylcholine in dodecane, pH 7.4, 5 h, room temperature, read-out: PAMPA Papp *10^−6 (cm/s) GI): 1.93 ×10⁻⁶ cm/s | PAMPA membrane retention (RM %) [4]: 26.7% | solubility (Water Solubility Assay; [13]): < 0.00251 µM | solubility (Water Solubility Assay; [14]): < 0.001 µg/mL | IC50 (DDX3 Helicase [5]): 0.5 µM | CC50 at 48 h [6, 15]: 40.4 µM | CC50 at 48 h [6, 16]: 62.3 µM | EC50 [7]: 30 µM | activity against HCV, in words [1]: best activity | EC50 ([1]; Hepatitis C virus, 48 h): 0.8 µM

CCCCc1cn(-c2ccc(NC(=O)Nc3ccccc3C(F)(F)F)cc2)nn1 [Compound 22a, 1-(4-(4-butyl-1H-1,2,3-triazol-1-yl)phenyl)-3-(2-(trifluoromethyl)phenyl)urea]
CC50 [2]: 200 µM | CC50 [3]: 94.4 µM | PAMPA Papp *10^−6 (cm/s) GI ([4]; phosphatidylcholine in dodecane, pH 7.4, 5 h, room temperature): 7.47 *10^−6 cm/s | PAMPA membrane retention (RM %) [4]: 23.9% | solubility (Water Solubility Assay; [13]): 0.0372 µM | solubility (Water Solubility Assay; [14]): 0.107 µg/mL | IC50 (DDX3 Helicase [5]): 0.3 µM | CC50 at 48 h [6, 15]: 178 µM | CC50 at 48 h [6, 16]: 145 µM | EC50 [7]: 0.6 µM | activity against HCV, in words [1]: best activity | EC50 ([1]; Hepatitis C virus, 48 h): 0.3 µM

CCOP(=O)(OCC)OCCc1cn(-c2ccc(NC(=O)Nc3ccccc3C)cc2)nn1 [Compound 36, diethyl (2-(1-(4-(3-(o-tolyl)ureido)phenyl)-1H-1,2,3-triazol-4-yl)ethyl) phosphate]
CC50 [2]: > 150 µM | IC50 (DDX3 Helicase [8]): 0.9 µM | CC50 (in vitro): > 50 µM | EC50 ([1]; Hepatitis C virus, 48 h): 75 µM | EC50 (JEV strain (NJ2008)): 21.1 µM

CCCCc1cn(-c2cccc(S(=O)(=O)Nc3ccccc3C(F)(F)F)c2)nn1 [Compound 64d, 3-(4-butyl-1H-1,2,3-triazol-1-yl)-N-(2-(trifluoromethyl)phenyl)benzenesulfonamide]
CC50 at 24 h ([9]; 24 h): 2130 µM | CC50 at 48 h ([9]; 48 h): 332 µM | CC50 at 72 h [9]: 198 µM | EC50 (PRRSV): 30 µM | EC50 [10]: 12.7 µM | IC50 (DDX3 Helicase [8]): 0.4 µM | Metabolic stability (Sability %) [11]: 99% | CC50 [12]: > 50 µM | EC50 (HIV (PBMC)): 31 µM | EC50 (JEV strain (NJ2008)): 6.7 µM

Cc1ccccc1NC(=O)Nc1cccc([N+](=O)[O-])c1 [EI01D, reference compound]
CC50 [2]: 86 µM | CC50 at 72 h [9]: 100 µM | IC50 (DDX3 Helicase [8]): 1 µM | EC50 (HIV): 10 µM | CC50 [12]: > 50 µM | activity against HCV, in words [1]: completely inactive | EC50 ([1]; Hepatitis C virus, 48 h): > 86 µM | EC50 (HIV (PBMC)): 10 µM | EC50 (JEV strain (NJ2008)): 10 µM

O=C(CN1C(=O)/C(=C/c2cccc(Br)c2)SC1=S)Nc1ccccc1O [FE15]
Ki (DDX3): 5.4 µM | EC50 (HIV-1 (IIIB)): 86.7 µM | CC50 (MOLT-4 T-lymphocytic): > 200 µM
